The values that follow come from US10768161B2, “Method for ecological risk assessment of heavy metal in river basin sediment based on toxicity effect” (CHINESE RESEARCH ACADEMY OF ENV[…], priority 2015, dated 2020).

Data set [1] in a line: Ecological risk assessment of heavy metals in a lake basin sediment. As to conditions: for Toxicity response coefficient: Tr^i=S^i*(5/BPI)^x, lake BPI=6.7; for Pollution risk index: ecological risk index Er^i=Tr^i*cf^i for the lake. An excerpt:
(8) calculating the toxicity response coefficient Tr^i of the i^th heavy metal according to the formula Tr^i=S^i*(5/BPI)^X one by one, where BPI is the biological yield index of the water body evaluated and the value of x is 1, ½ or 0;
(9) calculating the ecological risk index Er^i of the i^th heavy metal according to the formula Er^i=Tr^i*cf^i one by one, and the resulting Er^i is used to evaluate the ecological risk of a single metal to the assessed river basin: when Er^i<30, the ecological hazard of the i^th heavy metal to the assessed river basin is slight, when 30≤Er^i<60, the ecological hazard of the i^th heavy metal to the assessed river basin is medium, when 60≤Er^i<120, the ecological hazard of the i^th heavy metal to the assessed river basin is strong, when 120≤Er^i<240, the ecological hazard of the i^th heavy metal to the assessed river basin is very strong, when Er^i>240, the ecological hazard of the i^th heavy metal to the assessed river basin is extremely strong.
Preferably, the ecological assessment method described above also includes the step (10), that is using the formula RI=Σi=1^N Er^i to calculate the total ecological risk comprehensive index RI caused by multiple heavy metal pollutants in the water body and then using RI to evaluate the ecological risk of the assessed river basin: when RI<150, there is a slight ecological hazard in the river basin, when 150≤RI<300, there is a medium ecological hazard in the river basin, when 300≤RI<600, there is a very strong ecological hazard in the river basin, when RI≥600, there is an extremely strong ecological hazard in the river basin.
Preferably, the BPI described in step (8) is the bioproduction index, which is determined by the burning amount and nitrogen content of the sediment samples. BPI indicates the sensitivity of water to heavy metal pollutions, namely the effects of Eh and pH of pore water in sediments, and pH, salinity, and alkalinity of overlying water on the various heavy metals in the water.
Preferably, the value of x described in step (8) is determined by the type of heavy metals that is measured. The toxicity response coefficient of Hg decreases with the increase of BPI, and the relationship between them is linear. Therefore, when the measured metal is Hg, the value of x is 1. The toxicity response coefficient of As is independent of BPI. Therefore, when the measured metal is As, the value of x is 0. The toxicity response coefficient of other heavy metals also decreases with the increase of BPI, but it is not linear. Therefore, when the measured metal is not Hg or As, the value of x is ½.

Data set [2] relates to aquatic organisms. Kind of data set: Species Sensitivity Distributions (SSD) curve fitting, toxic concentration HC5. More on the design: Toxic concentration: unit not given here. Conditions: for Toxic concentration: HC5^i, protects 95% of aquatic organisms, Table 3. The text has this: (5) collecting the chronic toxicity data of the i^th heavy metal on aquatic species selected in step (1), performing curve fitting on the collected data, and selecting the curve regression equation with the highest goodness of fit, so as to obtain the best equation for the sensitivity of the i^th heavy metal;
(6) drawing a fitting curve (Species Sensitivity Distributions, SSD) according to the best fitting equation obtained in step (5), and setting the y value of this equation, that is, the cumulative probability to 0.05, and then calculating the corresponding x value, which is the toxic concentration HC5^i of the i^th heavy metal that protects 95% of aquatic organisms;
Preferably, plotting the collected concentration values of toxicity data for different species of organisms against the quantiles arranged in concentration, and selecting the curve equation to fit based on the resulting data point distribution shape. The fitting should adopt several different functions and select the optimal regression curve, so as to avoid the systematic errors introduced by improper selection of functions. When the distribution of the toxicity data points is a common S-type, the fitting curves are preferred to use the log-Normal distribution function, the log-logistic distribution function, the log-triangular distribution function, or a combination thereof. When the distribution of the toxicity data points is different from the common S-type distribution, other curves or non-parametric methods can be used to fit the data points, for example, using the Burr type III distribution function as the regression curve equation of the toxicity data of heavy metals.
Preferably, the goodness of fit described in step (5) is determined by the toxicity data points and the judgment coefficient R^2 of the resulting curve regression equation: when the judgment coefficient R^2 of the curve regression equation gets closer to 1, the goodness of the curve regression equation for the data is higher.
Preferably, the concentration HC5^i of the i^th heavy metal that protects 95% of aquatic organisms described in step (6) is the toxicity data corresponding to the cumulative probability of 5% aquatic organisms on the fitted curve.

The conditions of data set [3]: cited from earlier work; for Release coefficient: Table 3.
Data set [4] relates to aquatic organisms. Kind of data set: Integration and normalization of release coefficient and HC5 to toxicity coefficient S^i. Conditions: for Toxicity coefficient: Table 4; for Square root (toxicity coefficient S^i): final step of integration and normalization, Table 3. An excerpt: (7) repeating steps (4) to (6) n times to obtain the release coefficient cs^i and toxic concentration HC5^i of each heavy metal determined in step (2), and integrating and normalizing the release coefficient cs^i and toxic concentration HC5^i of each heavy metal to obtain the toxicity coefficient S^i of the i^th heavy metal;
Preferably, the integrating and normalizing regulation described in step (7) comprises the following calculation steps:
a. calculating the reciprocal of the concentration HC5^i of the i^th heavy metal, and keeping three significant figures for each value obtained;
b. dividing each reciprocal number obtained in step a by the smallest one of them, and keeping three significant figures for each value obtained;
c. multiplying each value obtained in step b by the release coefficient cs^i of the corresponding i^th heavy metal;
d. dividing each value obtained in step c by the smallest one of them, and keeping three significant figures for each value obtained; […]

Data set [5] deals with Brachionus calyciflorus. As to conditions: chronic toxicity, Zooplankton; cited from earlier work.
In data set [6] the test system is Coilia nasus taihuensis. Conditions: chronic toxicity, Fishes; cited from earlier work.
The test system of data set [7] is Duckweed. Conditions: chronic toxicity, Hydrophyte; cited from earlier work.
Data set [8] concerns Azolla pinnata. As to conditions: chronic toxicity, Hydrophyte; cited from earlier work.
For data set [9], the system named is Cryptophyta. Conditions: chronic toxicity, Phytoplankton; cited from earlier work.
Data set [10] relates to Bellamya aeruginosa. As to conditions: chronic toxicity; Zoobenthos, Bellamya aeruginose; cited from earlier work.
Data set [11] concerns Protosalanx hyalocranius. As to conditions: chronic toxicity, Fishes; cited from earlier work.
For data set [12], the system named is Chironomus. As to conditions: chronic toxicity, Zoobenthos; cited from earlier work.
For data set [13], the system named is Arenaceous sanding. Conditions: chronic toxicity, Zooplankton; cited from earlier work.
Data set [14] relates to Wild lotus. As to conditions: chronic toxicity, Hydrophyte; cited from earlier work.
The test system of data set [15] is Scenedesmus. Conditions: chronic toxicity, Phytoplankton; cited from earlier work.
Data set [16] concerns Carp. Conditions: chronic toxicity, Fishes; cited from earlier work.
Data set [17] relates to Corbicula fluminea. As to conditions: chronic toxicity, Zoobenthos; cited from earlier work.
Data set [18] has as its system Pyrrophyta. As to conditions: chronic toxicity, Phytoplankton; cited from earlier work.
The subject of data set [19] is Bosmina. Conditions: chronic toxicity, Zooplankton; cited from earlier work.

On to `[As]` [As], for which, in data set [1], the Toxicity response coefficient is 1.50 and the Pollution risk index was 1.05. For the same compound, in [2], the Toxic concentration is recorded as 14.9. In [3], the Release coefficient is listed as 27. For the same compound, in data set [4], the Toxicity coefficient turned out to be 1.50 and the “Square root (toxicity coefficient S^i)” value stood at 1.5.
Consider `[Cd]` [Cd], for which, in data set [1], the Toxicity response coefficient is 24.19 and the Pollution risk index is reported as 18.38. Also, in [2], the Toxic concentration was determined as 0.3. Besides, the Release coefficient in [3] is on record as 200. Besides, in data set [4], the Toxicity coefficient worked out at 28.00 and the “Square root (toxicity coefficient S^i)” value is 28.
Take `[Cr]` [Cr]: the “Toxicity data (NOEC)” value in data set [5] was 1789 µg/kg; in data set [6], 6941 µg/kg; in [7] it was 1000 µg/kg; in [8], 625 µg/kg; in [9], 317 µg/kg; in data set [10], 250 µg/kg. The “Toxicity data (NOEC)” value is 4405 µg/kg in data set [11]; 20 µg/kg in data set [12]; 1500 µg/kg in data set [13]; 123 µg/kg in [14]; 8 µg/kg in data set [15]; 23516 µg/kg in data set [16]. Moreover, the “Toxicity data (NOEC)” value is 1.13 µg/kg in [17], 671 µg/kg in data set [18] and 46.5 µg/kg in [19]. Besides, the Toxicity response coefficient in [1] turned out to be 0.86. The compound further yielded a Pollution risk index in data set [1] of 0.68. Further, in data set [2], the Toxic concentration came to 2.42. Also, the “toxic concentration HC5^i that protects 95% of aquatic organisms” value in data set [2] (cumulative probability 0.05 on log-logistic SSD fit of chronic toxicity data) amounted to 2.42 µg/L. For the same compound, in data set [3], the Release coefficient is listed as 2. Besides, the “release coefficient cs^1” value in data set [3] (from the literature) is 2×10^−3. In [4], this compound registered a Toxicity coefficient of 1.00. The “Square root (toxicity coefficient S^i)” value in data set [4] is listed as 1.
In data set [1], `[Cu]` [Cu] registered a Toxicity response coefficient of 14.69 and a Pollution risk index of 26.73. The Toxic concentration in [2] was found to be 0.89. Also, the Release coefficient in [3] was 200. In data set [4], the Toxicity coefficient was found to be 17.00 and the “Square root (toxicity coefficient S^i)” value stood at 17.
In data set [1], `[Hg]` [Hg] registered a Toxicity response coefficient of 20.15 and a Pollution risk index of 54.40. The “ecological hazard to the lake” value in [1] (class by Er^i of single metal) is “medium (when 30≤Er^i<60, the ecological hazard of the i^th heavy metal to the assessed river basin is medium)”. In addition, in data set [2], the Toxic concentration amounted to 0.53. The Release coefficient in data set [3] is 320. Moreover, in data set [4], the Toxicity coefficient came out at 27.00 and the “Square root (toxicity coefficient S^i)” value is 27.
With `[Ni]` [Ni], in data set [1], the Toxicity response coefficient came to 4.75 and the Pollution risk index came to 3.85. For the same compound, in data set [2], the Toxic concentration is recorded as 6.03. The Release coefficient in [3] is on record as 147. In data set [4], the Toxicity coefficient is 5.50 and the “Square root (toxicity coefficient S^i)” value was determined as 5.5.
Turning to `[Pb]` [Pb], in data set [3], the Release coefficient was 71.
In data set [1], `[Zn]` [Zn] yielded a Toxicity response coefficient of 2.16 and a Pollution risk index of 2.66. The Toxic concentration in data set [2] stood at 10.83. In addition, in data set [3], the Release coefficient is 57. For the same compound, in data set [4], the Toxicity coefficient is given as 2.50 and the “Square root (toxicity coefficient S^i)” value turned out to be 2.5.
